Assay: Water Miscibility Test
Format: physicochemical
Conditions: 0.5 g ionic liquid and 4.5 g de-ionized water, sonicated 1.5 hours; miscible if homogenous transparent system within 15 minutes of standing
Method: The water miscibility of an ionic liquid is measured by the following water miscibility test. A mixture of 0.5 g ionic liquid and 4.5 g de-ionized water are sonicated in a Bransonic Ultrasonic Bath (model# 1210R-MTH, 50/60 Hz, 117 volts, 1.3 AMPS) according to manufacture's specifications for 1.5 hours. Thereafter, if a homogenous transparent system results within 15 minutes of standing without agitation, then the ionic liquid is water miscible.

SMILES	Water Miscible?
CC(C)CC(C)CC(CC(C)C)OCCOCCOCCOS(=O)(=O)[O-].CCCCCCCCCCCC[N+](C)(C)O (centres unmarked) [Example 1, N-dodecyl-N,N-dimethylamine N-oxide 2,4,8-trimethylnonyl-6-triethoxysulfate]	No
CCCCCCCCCCCCOCCOS(=O)(=O)[O-].CCCCCCCCCCCC[N+](C)(C)O [Example 2, N-dodecyl-N,N-dimethylamine N-oxide dodecylethoxysulfate]	No
